Assay results published in ChEMBL document CHEMBL5038621, “Development of anti-inflammatory peptidomimetics based on the structure of human alpha1-antitrypsin” (2022).
Calls of active or inactive are those of the source. No cut-off for these calls is given here. Peptide text beside a SMILES is read from it.

Columns and labels:
[1] = Antiinflammatory activity against LPS-stimulated ThG elicited C57BL/6 mouse peritoneal macrophages assessed as inhibition of LPS-induced IL6 production measured after 24 hrs by Griess assay; type: functional, Peritoneal macrophage; set-up: concentration or dose not given beside the values
[2] = Antiinflammatory activity against LPS-stimulated ThG elicited C57BL/6 mouse peritoneal macrophages assessed as reduction in cell surface CD86 expression measured after 24 hrs by Flow cytometry analysis; type: functional, Peritoneal macrophage; set-up: concentration or dose not given beside the values
[3] = Antiinflammatory activity against LPS-stimulated ThG elicited C57BL/6 mouse peritoneal macrophages assessed as reduction in cell surface CD40 expression measured after 24 hrs by Flow cytometry analysis; type: functional, Peritoneal macrophage; set-up: concentration or dose not given beside the values
[4] = Antiinflammatory activity against LPS-stimulated ThG elicited C57BL/6 mouse peritoneal macrophages assessed as inhibition of LPS-induced TNFalpha production measured after 24 hrs by ELISA; type: functional, Peritoneal macrophage; set-up: scale not given: the % may be the effect or the level left
[5] = Antiinflammatory activity against LPS-stimulated ThG elicited C57BL/6 mouse peritoneal macrophages assessed as inhibition of LPS-induced NO production measured after 24 hrs by Griess assay; type: functional, Peritoneal macrophage; set-up: concentration or dose not given beside the values
Mus musculus [6] = assay: Antiinflammatory activity in LPS-induced C57BL/6 mouse peritonitis model assessed as increase in F4/80 peritoneal cell population at 50 ug, ip treated for 3 hrs followed by LPS stimulation and measured after 24 hrs post stimulation by flow cytometry; type: functional; conditions: dose 50 µg
Mus musculus [7] = assay: Antiinflammatory activity in LPS-induced C57BL/6 mouse peritonitis model assessed as reduction in CD86 protein expression at 50 ug, ip treated for 3 hrs followed by LPS stimulation and measured after 24 hrs post stimulation by flow cytometry; type: functional; set-up: scale not given: the % may be the effect or the level left; conditions: dose 50 µg
Mus musculus [8] = assay: Antiinflammatory activity in LPS-induced C57BL/6 mouse peritonitis model assessed as reduction in CD40 protein expression at 50 ug, ip treated for 3 hrs followed by LPS stimulation and measured after 24 hrs post stimulation by flow cytometry; type: functional; set-up: scale not given: the % may be the effect or the level left; conditions: dose 50 µg
Mus musculus [9] = assay: Antiinflammatory activity in LPS-induced C57BL/6 mouse peritonitis model assessed as reduction in LPS-induced serum IL-6 levels at 50 ug, ip treated for 3 hrs followed by LPS stimulation and measured after 24 hrs post stimulation by ELISA; type: functional; set-up: scale not given: the % may be the effect or the level left; conditions: dose 50 µg
Mus musculus [10] = assay: Antiinflammatory activity in LPS-induced C57BL/6 mouse peritonitis model assessed as increase in Gr1 cell population at 50 ug, ip treated for 3 hrs followed by LPS stimulation and measured after 24 hrs post stimulation by flow cytometry; type: functional; conditions: dose 50 µg
Mus musculus [11] = assay: Antiinflammatory activity in LPS-induced C57BL/6 mouse peritonitis model assessed as reduction in LPS-induced serum TNF alpha levels at 50 ug, ip treated for 3 hrs followed by LPS stimulation and measured after 24 hrs post stimulation by ELISA; type: functional; set-up: scale not given: the % may be the effect or the level left; conditions: dose 50 µg
[12] = target: T1, Neutrophil elastase (Homo sapiens) (UniProt P08246); assay: Inhibition of neutrophil elastase (unknown origin) at 0.96 to 96.15 uM; conditions: dose 0.96-96.15 µM
T1 sequence (whole entry): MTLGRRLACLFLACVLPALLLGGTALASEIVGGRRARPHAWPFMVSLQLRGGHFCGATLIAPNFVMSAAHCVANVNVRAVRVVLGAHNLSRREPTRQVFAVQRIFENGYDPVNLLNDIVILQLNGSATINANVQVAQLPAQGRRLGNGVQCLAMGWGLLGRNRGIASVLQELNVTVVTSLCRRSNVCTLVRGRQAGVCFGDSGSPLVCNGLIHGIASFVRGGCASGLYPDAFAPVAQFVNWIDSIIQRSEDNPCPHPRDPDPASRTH

Structure (SMILES)	Activity [1] [%]	Activity [2] [%]	Activity [3] [%]	Activity [5] [%]	inhibition [12]	other results
COc1cccc(C(=O)NC(Cc2c[nH]cn2)C(=O)NC(C(N)=O)c2ccccc2)c1OC (configuration not stated)	46.3					
NC(=O)c1ccc(CNC(=O)C(Cc2c[nH]cn2)NCc2ccc(O)cc2)cc1 (configuration not stated)	46.3	20.4	49.3			
NC(=O)CCC(NC(=O)C1Cc2nc[nH]c2CN1)C(N)=O (configuration not stated)	46.3					Activity [4]: 24.4%
COc1cccc(C(=O)NC(Cc2c[nH]cn2)C(=O)NCc2ccc(C(N)=O)cc2)c1OC (configuration not stated)	46.3			29.5		
NC(=O)c1ccc(CNC(=O)C(Cc2c[nH]cn2)NCc2cccc(O)c2)cc1 (configuration not stated)	46.3					
NC(=O)C(NC(=O)C(Cc1c[nH]cn1)NCc1ccc(O)cc1)c1ccccc1 (configuration not stated)	33.5	16.4	27.4	38.7		Activity (Mus musculus [6]): 130.4%; Activity [4]: 19.9%; Activity (Mus musculus [7]): 45.6%; Activity (Mus musculus [8]): 47.3%; Activity (Mus musculus [9]): 80.6%; Activity (Mus musculus [10]): 48.4%; Activity (Mus musculus [11]): 73.4%
CC[C@H](C)[C@H](NC(=O)[C@H](CO)NC(=O)[C@H](CC(C)C)NC(=O)[C@H](CC(C)C)NC(=O)[C@@H](NC(=O)CNC(=O)[C@@H](NC(=O)[C@H](C)NC(C)=O)[C@@H](C)O)[C@@H](C)O)C(=O)N[C@@H](CC(N)=O)C(N)=O (Ac-ATGTLLSIN-NH2)					inactive	
CC(=O)N[C@@H](CC(=O)O)C(=O)N[C@@H](CC(C)C)C(=O)N[C@@H](CCCCN)C(=O)N[C@@H](CCCCN)C(=O)N[C@@H](CC(=O)O)C(=O)N[C@@H](CCCCN)C(=O)N[C@@H](C)C(N)=O (Ac-DLKKDKA-NH2)					inactive	
CC(=O)N[C@@H](Cc1ccccc1)C(=O)N[C@@H](CCCNC(=N)N)C(=O)N[C@@H](Cc1ccc(O)cc1)C(=O)N[C@@H](CC(C)C)C(=O)N[C@H](C(=O)N[C@@H](CC(C)C)C(=O)N[C@@H](Cc1ccccc1)C(N)=O)C(C)C (Ac-FRYLVLF-NH2)					inactive	
CC(=O)N[C@@H](Cc1c[nH]cn1)C(=O)N[C@@H](CS)C(=O)N[C@@H](CCCCN)C(=O)N[C@@H](CCCCN)C(=O)N[C@@H](CC(C)C)C(=O)NCC(=O)N[C@@H](CCCCN)C(=O)N[C@@H](Cc1ccccc1)C(N)=O (Ac-HCKKLGKF-NH2)					inactive	
CC(=O)N[C@@H](CC(C)C)C(=O)N[C@@H](CCC(=O)O)C(=O)NCC(=O)N1CCC[C@H]1C(=O)N[C@@H](CCCCN)C(=O)N[C@@H](C)C(N)=O (Ac-LEGPKA-NH2)					inactive	
CC[C@H](C)[C@H](NC(=O)[C@@H](NC(=O)[C@H](Cc1ccc(O)cc1)NC(=O)[C@H](CC(C)C)NC(=O)[C@H](Cc1ccccc1)NC(=O)[C@H](CC(C)C)NC(C)=O)C(C)C)C(=O)N[C@@H](Cc1c[nH]cn1)C(N)=O (Ac-LFLYVIH-NH2)	38.4		45.7	57.6	inactive	
CC(=O)N[C@@H](CC(C)C)C(=O)N1CCC[C@H]1C(=O)N[C@@H](CC(N)=O)C(=O)N[C@@H](CO)C(=O)N[C@@H](CC(C)C)C(=O)NCC(=O)N[C@@H](CC(N)=O)C(N)=O (Ac-LPNSLGN-NH2)		24.7		70.3	inactive	
CC(=O)N[C@@H](CCC(N)=O)C(=O)N[C@@H](Cc1ccccc1)C(=O)N[C@@H](Cc1ccccc1)C(=O)N[C@@H](CCCCN)C(=O)NCC(=O)N[C@@H](CCCCN)C(N)=O (Ac-QFFKGK-NH2)		35.2	41.6	51.8	inactive	
CC[C@H](C)[C@H](NC(=O)[C@H](CCC(=O)O)NC(=O)[C@H](CC(C)C)NC(=O)[C@H](CCCCN)NC(=O)[C@H](CCCCN)NC(=O)[C@H](CS)NC(=O)[C@H](Cc1c[nH]cn1)NC(=O)[C@H](CCC(N)=O)NC(C)=O)C(=O)N[C@@H](CCCCN)C(N)=O (Ac-QHCKKLEIK-NH2)					inactive	
CC(=O)N[C@@H](Cc1ccc(O)cc1)C(=O)N[C@@H](CCCNC(=N)N)C(=O)N[C@@H](C)C(=O)N[C@@H](Cc1c[nH]cn1)C(=O)N[C@@H](CCC(N)=O)C(=O)NCC(=O)N[C@@H](CCC(=O)O)C(N)=O (Ac-YRAHQGE-NH2)	52.2	52.4	55.3	66.9	inactive	
